Reference: patent US20190255042A1, “APPLICATION OF HEDGEHOG PATHWAY INHIBITOR IN TREATING FIBROSIS DISEASES” (IMPACT THERAPEUTICS, INC, priority 2016, published 2019)

Tested on: liver fibrosis model in C57BL/6 mice induced by CCl4
Assay: Prophylactic therapeutic efficacy in liver fibrosis model in C57BL/6 mice induced by CCl4
Assay type: in vivo
Method: 56 male C57BL/6 mice were randomize divided into false Model group (Group 1, n=6), Model group (Group 2, n=10), positive drug Obercholic acid group (Group 3, n=10, 30 mg/kg/d), compound A low-dose group (Group 4, n=10, 5 mg/kg/d), Compound A medium-dose (Group 5, n=10, 10 mg/kg/d), and Compound A high-dose group (Group 6, n=10, 20 mg/kg/d). Oral molding agent for molding three times a week, for 4 weeks, weighing before each dose. Compound A was administered orally once a day for a total of 28 days from the day of modeling. The model group was given an equal volume of drug vehicle and weighed before each dose. All animals fasted for 6 hours from 24 hours after the end of the last dose. Serum was collected and the concentrations of AST, ALT and TBIL in serum were detected. All animals were euthanized, the livers were collected, weighed, and photos of the gross anatomy of the livers were taken. The liver tissue was fixed in 10% formalin solution for histopathological examination, H&E staining and Sirius red staining.

[1] = high dose group (20 mg/kg/d), four weeks, p<0.05
[2] = obercholic acid 30 mg/kg/d, compound A 5, 10, 20 mg/kg/d

CC(C)c1cnc(-c2cc(NC(=O)c3ccc(N4C[C@@H](C)N(C)[C@@H](C)C4)cc3C(F)(F)F)ccc2Cl)[nH]1 [Comp A, N-(3-(5-isopropyl-1H-imidazol-2-yl)-4-chlorophenyl)-2-trifluoromethyl-4-((3S,5R)-3,4,5-trimethylpiperazin-1-yl)benzamide]
serum ALT, AST, and TBIL (5 mg/kg, 10 mg/kg, and 20 mg/kg daily for four consecutive weeks): Slight reductions | effect on the inflammatory response of liver tissue (5, 10, 20 mg/kg daily for four weeks): little effect | dose-dependent ALT and AST (5, 10, 20 mg/kg/d, four weeks): decreasing trend | hepatocellular degeneration, necrosis and inflammatory cell infiltration (Compound A treatment groups 5, 10, 20 mg/kg/d): tendency to reduce | TBIL compared with model group (Compound A, four weeks of treatment): not significantly decreased | liver weight (after 4 weeks, compared with false model group, Obercholic acid 30 mg/kg/d, Compound A 5, 10, 20 mg/kg/d): no significant increase | area of liver tissue fibrosis (compound A dose groups, model group 1.2%, no statistical difference): 0.8% | changes of liver surface compared with model group (gross liver after 4 weeks, Obercholic acid 30 mg/kg/d, compound A 5, 10, 20 mg/kg/d): slightly alleviated | ALT compared with model group [1]: significantly lower | AST compared with model group [1]: significantly lower | body weight (high-dose group 20 mg/kg, significant difference from the other groups): no significant body weight growth | hepatic fibrosis area (Sirius red staining) compared with model group [2]: no significant difference | total score of liver cell injury compared with model group [2]: not significantly different | liver injury score (three dose groups (5, 10, 20 mg/kg), model group 6 points): 4-5 points
